Assay results: US20100273814A1, “((PHENYL)IMIDAZOLYL)METHYLHETEROARYL COMPOUNDS” (priority 2007, published 2010)
One block for each compound: values may come before it.

Experiments:
Format in all cases: cell-based
alpha2A receptor = target: T1, alpha2A receptor (Homo sapiens, UniProt P08913); test: Receptor Selection and Amplification Technology (RSAT) assay, alpha2A; conditions: RSAT; for EC50: transfected NIH-3T3 cells, value outside brackets, read-out: Alpha 2A EC50 (potency); for Alpha 2A intrinsic activity (efficacy): ratio of maximal effect to that of standard full agonist brimonidine (UK14304), value in brackets
T1 construct: expressed in transfected cells; host or cells: NIH-3T3 cells
T1 sequence (P08913 1-465): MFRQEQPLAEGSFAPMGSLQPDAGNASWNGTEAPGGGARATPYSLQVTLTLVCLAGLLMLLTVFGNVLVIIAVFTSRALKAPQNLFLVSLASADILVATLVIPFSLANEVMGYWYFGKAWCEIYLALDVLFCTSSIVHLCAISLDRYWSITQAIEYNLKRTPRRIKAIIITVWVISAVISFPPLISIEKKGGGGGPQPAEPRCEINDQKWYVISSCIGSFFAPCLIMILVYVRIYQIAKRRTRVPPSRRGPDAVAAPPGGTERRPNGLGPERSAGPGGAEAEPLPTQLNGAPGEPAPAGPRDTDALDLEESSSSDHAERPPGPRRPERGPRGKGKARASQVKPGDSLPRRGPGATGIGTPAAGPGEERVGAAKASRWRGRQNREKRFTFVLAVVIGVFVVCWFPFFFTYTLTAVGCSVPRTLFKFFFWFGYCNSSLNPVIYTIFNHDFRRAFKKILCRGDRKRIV
Description: (§1) Receptor Selection and Amplification Technology (RSAT) Assay
(§2) The RSAT assay measures a receptor-mediated loss of contact inhibition that results in selective proliferation of receptor-containing cells in a mixed population of confluent cells. The increase in cell number is assessed with an appropriate transfected marker gene such as β-galactosidase, the activity of which can be easily measured in a 96-well format. Receptors that activate the G protein, Gq, elicit this response. Alpha2 receptors, which normally couple to Gi, activate the RSAT response when coexpressed with a hybrid Gq protein that has a Gi receptor recognition domain, called Gq/i5.
(§3) NIH-3T3 cells are plated at a density of 2×10^6 cells in 15 cm dishes and maintained in Dulbecco's modified Eagle's medium supplemented with 10% calf serum. One day later, cells are cotransfected by calcium phosphate precipitation with mammalian expression plasmids encoding p-SV-β-galactosidase (5-10 μg), receptor (1-2 μg) and G protein (1-2 μg). 40 μg salmon sperm DNA may also be included in the transfection mixture. Fresh media is added on the following day and 1-2 days later, cells are harvested and frozen in 50 assay aliquots. Cells are thawed and […] added to 100 aliquots of various concentrations of drugs in triplicate in 96-well dishes. Incubations continue 72-96 hr at 37° C. After washing with phosphate-buffered saline, β-galactosidase enzyme activity is determined by adding 200 μl of the chromogenic substrate (consisting of 3.5 mM o-nitrophenyl-β-D-galactopyranoside and 0.5% nonidet P-40 in phosphate buffered saline), incubating overnight at 30° C. and measuring optical density at 420 nm. The absorbance is a measure of enzyme activity, which depends on cell number and reflects a receptor-mediated cell proliferation. The efficacy or intrinsic activity is calculated as a ratio of the maximal effect of the drug to the maximal effect of a standard full agonist for each receptor subtype. Brimonidine, also called UK14304, the chemical structure of which is shown below, is used as the standard agonist for the alpha2A, alpha2B and alpha2C receptors. The EC50 is the concentration at which the drug effect is half of its maximal effect.
(§4) EC50 values are nanomolar. ND stands for “not determinable” at concentrations less than 10 micromolar. IA stands for “intrinsic activity.”

alpha2B receptor = target: T2, alpha2B receptor (Homo sapiens, UniProt P18089); test: Receptor Selection and Amplification Technology (RSAT) assay, alpha2B; conditions: RSAT; for EC50: transfected NIH-3T3 cells, value outside brackets, read-out: Alpha 2B EC50 (potency); for Alpha 2B intrinsic activity (efficacy): ratio of maximal effect to that of standard full agonist brimonidine (UK14304), value in brackets
T2 construct: expressed in transfected cells; host or cells: NIH-3T3 cells
T2 sequence (P18089 1-450): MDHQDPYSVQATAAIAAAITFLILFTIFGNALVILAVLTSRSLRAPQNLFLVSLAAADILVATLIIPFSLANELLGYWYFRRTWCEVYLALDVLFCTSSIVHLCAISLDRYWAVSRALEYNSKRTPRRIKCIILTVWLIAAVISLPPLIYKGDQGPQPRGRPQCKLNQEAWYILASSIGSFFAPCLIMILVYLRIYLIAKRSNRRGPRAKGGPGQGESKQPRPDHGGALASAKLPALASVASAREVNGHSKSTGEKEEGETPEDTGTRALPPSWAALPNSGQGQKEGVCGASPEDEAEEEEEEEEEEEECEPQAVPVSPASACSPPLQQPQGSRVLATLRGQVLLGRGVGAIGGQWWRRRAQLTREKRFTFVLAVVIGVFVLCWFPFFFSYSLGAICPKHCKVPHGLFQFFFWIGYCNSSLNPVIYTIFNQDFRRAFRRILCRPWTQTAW
Description: as §1, §2, §3, §4

alpha2C receptor = target: T3, alpha2C receptor (Homo sapiens, UniProt P18825); test: Receptor Selection and Amplification Technology (RSAT) assay, alpha2C; conditions: RSAT; for EC50: transfected NIH-3T3 cells, value outside brackets, read-out: Alpha 2C EC50 (potency); for Alpha 2C intrinsic activity (efficacy): ratio of maximal effect to that of standard full agonist brimonidine (UK14304), value in brackets
T3 construct: expressed in transfected cells; host or cells: NIH-3T3 cells
T3 sequence (P18825 1-462): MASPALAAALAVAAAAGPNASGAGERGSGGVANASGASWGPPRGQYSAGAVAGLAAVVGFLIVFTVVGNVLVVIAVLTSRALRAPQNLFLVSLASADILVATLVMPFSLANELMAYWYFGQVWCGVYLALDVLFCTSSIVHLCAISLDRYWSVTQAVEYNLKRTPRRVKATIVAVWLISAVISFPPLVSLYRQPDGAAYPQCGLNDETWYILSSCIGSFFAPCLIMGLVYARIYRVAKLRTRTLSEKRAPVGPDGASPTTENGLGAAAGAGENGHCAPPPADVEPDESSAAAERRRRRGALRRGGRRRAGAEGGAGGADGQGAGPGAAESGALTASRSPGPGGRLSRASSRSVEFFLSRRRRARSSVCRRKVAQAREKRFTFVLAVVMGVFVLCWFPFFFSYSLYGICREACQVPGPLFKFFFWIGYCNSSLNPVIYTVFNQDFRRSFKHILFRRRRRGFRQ
Description: as §1, §2, §3, §4

SMILES: Fc1cccc(C(c2ccncc2)c2c[nH]cn2)c1F (stereo not shown) [4-((2,3-difluorophenyl)(1H-imidazol-5-yl)methyl)pyridine]
EC50 (alpha2A receptor): > 10000 nM | Alpha 2A intrinsic activity (efficacy) (alpha2A receptor): 0.01 | EC50 (alpha2B receptor): 837 nM | Alpha 2B intrinsic activity (efficacy) (alpha2B receptor): 0.70 | EC50 (alpha2C receptor): 2490 nM | Alpha 2C intrinsic activity (efficacy) (alpha2C receptor): 1.02

EC50 (alpha2A receptor): > 10000 nM | Alpha 2A intrinsic activity (efficacy) (alpha2A receptor): 0.14 | EC50 (alpha2B receptor): 45 nM | Alpha 2B intrinsic activity (efficacy) (alpha2B receptor): 1.29 | EC50 (alpha2C receptor): > 10000 nM | Alpha 2C intrinsic activity (efficacy) (alpha2C receptor): 0.29
SMILES: Fc1c(C(c2ccncc2)c2c[nH]cn2)cccc1C(F)(F)F (stereo not shown) [4-((2-fluoro-3-(trifluoromethyl)phenyl)(1H-imidazol-5-yl)methyl)pyridine]

SMILES: Fc1ccccc1C(c1ccccn1)c1c[nH]cn1 (stereo not shown) [2-((2-fluorophenyl)(1H-imidazol-5-yl)methyl)pyridine]
EC50 (alpha2A receptor): > 10000 nM | Alpha 2A intrinsic activity (efficacy) (alpha2A receptor): 0.04 | EC50 (alpha2B receptor): 993 nM | Alpha 2B intrinsic activity (efficacy) (alpha2B receptor): 0.56 | EC50 (alpha2C receptor): 2080 nM | Alpha 2C intrinsic activity (efficacy) (alpha2C receptor): 0.43

SMILES: CC(C)c1ccc(C(c2c[nH]cn2)c2cccc(F)c2Cl)s1 (stereo not shown)
Alpha 2A intrinsic activity (efficacy) (alpha2A receptor): 0.06 | EC50 (alpha2B receptor): 75 nM | Alpha 2B intrinsic activity (efficacy) (alpha2B receptor): 0.40 | Alpha 2C intrinsic activity (efficacy) (alpha2C receptor): 0.23

SMILES: Fc1cccc(C(c2ccccn2)c2c[nH]cn2)c1 (stereo not shown) [2-((3-fluorophenyl)(1H-imidazol-5-yl)methyl)pyridine]
EC50 (alpha2A receptor): > 10000 nM | Alpha 2A intrinsic activity (efficacy) (alpha2A receptor): 0.14 | EC50 (alpha2B receptor): 273 nM | Alpha 2B intrinsic activity (efficacy) (alpha2B receptor): 0.64 | EC50 (alpha2C receptor): > 10000 nM | Alpha 2C intrinsic activity (efficacy) (alpha2C receptor): 0.25

SMILES: Fc1c(C(c2ccccn2)c2c[nH]cn2)cccc1C(F)(F)F (stereo not shown) [2-((2-fluoro-3-(trifluoromethyl)phenyl)(1H-imidazol-5-yl)methyl)pyridine]
EC50 (alpha2A receptor): > 10000 nM | Alpha 2A intrinsic activity (efficacy) (alpha2A receptor): 0.08 | EC50 (alpha2B receptor): 39 nM | Alpha 2B intrinsic activity (efficacy) (alpha2B receptor): 1.1 | EC50 (alpha2C receptor): 507 nM | Alpha 2C intrinsic activity (efficacy) (alpha2C receptor): 1.09

SMILES: c1ccc(C(c2cccnc2)c2c[nH]cn2)cc1 (stereo not shown) [3-((phenyl)(1H-imidazol-5-yl)methyl)pyridine]
EC50 (alpha2A receptor): > 10000 nM | Alpha 2A intrinsic activity (efficacy) (alpha2A receptor): 0.11 | EC50 (alpha2B receptor): 190 nM | Alpha 2B intrinsic activity (efficacy) (alpha2B receptor): 0.72 | EC50 (alpha2C receptor): > 10000 nM | Alpha 2C intrinsic activity (efficacy) (alpha2C receptor): 0.16

SMILES: Cc1ccccc1C(c1cccnc1)c1c[nH]cn1 (stereo not shown) [3-((2-methylphenyl)(1H-imidazol-5-yl)methyl)pyridine]
EC50 (alpha2A receptor): > 10000 nM | Alpha 2A intrinsic activity (efficacy) (alpha2A receptor): 0.06 | EC50 (alpha2B receptor): 259 nM | Alpha 2B intrinsic activity (efficacy) (alpha2B receptor): 0.61 | EC50 (alpha2C receptor): > 10000 nM | Alpha 2C intrinsic activity (efficacy) (alpha2C receptor): 0.29

SMILES: Fc1c(Cl)cccc1C(c1cccnc1)c1cnc[nH]1 (stereo not shown) [3-((3-chloro-2-fluorophenyl)(1H-imidazol-5-yl)methyl)pyridine]
EC50 (alpha2A receptor): > 10000 nM | Alpha 2A intrinsic activity (efficacy) (alpha2A receptor): 0.28 | EC50 (alpha2B receptor): 5.2 nM | Alpha 2B intrinsic activity (efficacy) (alpha2B receptor): 1.34 | EC50 (alpha2C receptor): 64 nM | Alpha 2C intrinsic activity (efficacy) (alpha2C receptor): 0.55

SMILES: Cc1ccccc1C(c1ccncc1)c1c[nH]cn1 (stereo not shown) [4-((2-methylphenyl)(1H-imidazol-5-yl)methyl)pyridine]
EC50 (alpha2A receptor): > 10000 nM | Alpha 2A intrinsic activity (efficacy) (alpha2A receptor): 0.06 | EC50 (alpha2B receptor): 63 nM | Alpha 2B intrinsic activity (efficacy) (alpha2B receptor): 0.82 | EC50 (alpha2C receptor): 265 nM | Alpha 2C intrinsic activity (efficacy) (alpha2C receptor): 1.08

SMILES: Cc1cccc(C(c2ccncc2)c2c[nH]cn2)c1C (stereo not shown) [4-((2,3-dimethylphenyl)(1H-imidazol-5-yl)methyl)pyridine]
EC50 (alpha2A receptor): 1510 nM | Alpha 2A intrinsic activity (efficacy) (alpha2A receptor): 0.32 | EC50 (alpha2B receptor): 4.4 nM | Alpha 2B intrinsic activity (efficacy) (alpha2B receptor): 1.07 | EC50 (alpha2C receptor): 605 nM | Alpha 2C intrinsic activity (efficacy) (alpha2C receptor): 0.49

SMILES: Cc1ccccc1C(c1ccccn1)c1c[nH]cn1 (stereo not shown) [2-((2-methylphenyl)(1H-imidazol-5-yl)methyl)pyridine]
EC50 (alpha2A receptor): > 10000 nM | Alpha 2A intrinsic activity (efficacy) (alpha2A receptor): 0.03 | EC50 (alpha2B receptor): 177 nM | Alpha 2B intrinsic activity (efficacy) (alpha2B receptor): 0.92 | EC50 (alpha2C receptor): 213 nM | Alpha 2C intrinsic activity (efficacy) (alpha2C receptor): 0.57
